pEC50: −log10 of the molar value.

The experiment addresses T1, human RXFP1 (Homo sapiens, UniProt Q9HBX9).
T1 construct: expressed in transfected cells
T1 sequence (Q9HBX9 1-757): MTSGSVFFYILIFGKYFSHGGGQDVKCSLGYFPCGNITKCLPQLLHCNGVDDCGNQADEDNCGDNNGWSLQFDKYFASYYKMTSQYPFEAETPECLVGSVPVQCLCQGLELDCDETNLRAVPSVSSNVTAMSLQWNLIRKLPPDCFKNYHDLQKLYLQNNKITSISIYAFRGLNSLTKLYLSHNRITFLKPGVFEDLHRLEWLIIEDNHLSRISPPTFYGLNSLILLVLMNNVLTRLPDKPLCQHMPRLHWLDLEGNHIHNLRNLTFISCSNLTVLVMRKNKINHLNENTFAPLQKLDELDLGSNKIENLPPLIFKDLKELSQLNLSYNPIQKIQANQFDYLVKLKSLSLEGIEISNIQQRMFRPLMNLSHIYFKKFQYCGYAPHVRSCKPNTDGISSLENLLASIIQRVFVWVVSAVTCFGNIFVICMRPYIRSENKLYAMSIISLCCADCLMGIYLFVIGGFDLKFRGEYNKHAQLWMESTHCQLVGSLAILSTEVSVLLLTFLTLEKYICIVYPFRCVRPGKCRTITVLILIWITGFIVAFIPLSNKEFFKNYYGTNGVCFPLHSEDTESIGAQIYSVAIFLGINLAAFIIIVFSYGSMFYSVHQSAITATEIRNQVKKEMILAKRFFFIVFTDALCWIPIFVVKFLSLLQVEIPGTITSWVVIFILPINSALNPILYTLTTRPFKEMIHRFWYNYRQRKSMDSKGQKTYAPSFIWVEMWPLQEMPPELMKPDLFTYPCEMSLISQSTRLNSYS
Put plainly: RXFP1 cAMP assay (hRXFP1 HEK293 cAMP assay, HTRF). Format: cell-based. To be noted: HEK293 cells stably expressing human RXFP1, 30 min at room temperature, read-out: cAMP hRXFP1 HEK293 Assay EC50. In a few lines:
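Intracellular cAMP was read by HTRF, with potency fitted to a 4-parameter logistic curve. Compound exposure (0.010 nM–50 μM final, 2% DMSO) lasted 30 min at room temperature. Cells were hRXFP1-HEK293 at 1500 per well in IBMX-containing (0.5 mM) HEPES-buffered HBSS.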
Consider `C=C/C=C1\C2CCC1[C@H](C(=O)Nc1ccc(F)c(C(F)(F)F)c1)[C@@H]2NC(=O)c1cc(-c2cc(C(=O)NC)ccc2F)ccc1OC` (stereo partly drawn) [compound 164], for which the pEC50 was 7.85.
Consider `COc1ccc(-c2cc([C@H](OC(=O)NC3CCC3)C(F)(F)F)ccc2F)cc1C(=O)N[C@@H]1C2CCC(/C2=C/C(C)C)[C@@H]1C(=O)Nc1ccc(F)c(C(F)(F)F)c1` (stereo partly drawn) [compound 925], for which the negative-log EC50 (pEC50) was 8.28.
The figure for `CONC(=O)OC(c1ccc(F)c(-c2ccc(OC)c(C(=O)N[C@@H]3C4CCC(/C4=C/C4CC4)[C@@H]3C(=O)Nc3ccc(F)c(C(F)(F)F)c3)c2)c1)C(F)(F)F` (stereo partly drawn) [compound 214] is 8.70; for `COc1ccc(C2CCCN2C(=O)C(C)(C)O)cc1C(=O)N[C@@H]1C2CCC(C2=CC2CC2)[C@@H]1C(=O)Nc1ccc(F)c(C(F)(F)F)c1` (stereo partly drawn) [compound 671] it is 6.35.
On to `COc1cc(F)c(F)cc1C(=O)N[C@@H]1C2CCC(/C2=C/c2cccc(CN3CCOCC3)c2)[C@@H]1C(=O)Nc1ccc(F)c(C(F)(F)F)c1` (stereo partly drawn) [compound 70], for which the negative logarithm of the EC50 (pEC50) was 5.54.
Then `COc1c(F)cc(C2=NOC3COCC23)cc1C(=O)N[C@H]1[C@@H](C(=O)Nc2ccc(F)c(C(F)(F)F)c2)[C@H]2CC[C@@H]1/C2=C\C1CC1` (stereo partly drawn) [compound 791], with 9.10; and `COc1ccc(N2CCCC(C(=O)O)C2)cc1C(=O)N[C@@H]1C2CCC(C2=C(C)C)[C@@H]1C(=O)Nc1ccc(F)c(C(F)(F)F)c1` (stereo partly drawn) [compound 142], with 5.54; and `COc1ccc(C2=NOC3COCC23)cc1C(=O)N[C@H]1[C@@H](C(=O)N[C@H](C)C2(C)CC2(F)F)[C@H]2CC[C@@H]1/C2=C\C1CC1` (stereo partly drawn) [compound 770], with 8.44.
The figure for `COc1cc(F)c(C2=NOC3COCC23)cc1C(=O)N[C@H]1[C@@H](C(=O)Nc2ccc(F)c(C(F)(F)F)c2)[C@H]2CC[C@@H]1/C2=C\C1CC1` (stereo partly drawn) [Example 419, (1R,2S,3R,4R,Z)-7-(cyclopropylmethylene)-3-(4-fluoro-2-methoxy-5-(3a,4,6,6a-tetrahydrofuro[3,4-d]isoxazol-3-yl)benzamido)-N-(4-fluoro-3-(trifluoromethyl)phenyl)bicyclo[2.2.1]heptane-2-carboxamide] is 7.77; for `COc1ccc(C2=NOC3COCC23)cc1C(=O)N[C@H]1[C@@H](C(=O)NCC2CC2)[C@H]2CC[C@@H]1/C2=C\C1CC1` (stereo partly drawn) [compound 684] it is 6.19.
Then `COc1ccc(-c2cc(C(NC(=O)C3CCOCC3)C(=O)O)ccc2F)cc1C(=O)N[C@@H]1C2CCC(/C2=C/C(F)(F)F)[C@@H]1C(=O)Nc1ccc(F)c(C(F)(F)F)c1` (stereo partly drawn) [compound 239], with 9.00; and `COc1ccc(C2=NOC(CC(=O)O)C2)cc1C(=O)N[C@@H]1C2CCC(/C2=C/C2CCC2)[C@@H]1C(=O)Nc1ccc(F)c(C(F)(F)F)c1` (stereo partly drawn) [compound 394], with 7.31.
In the case of `CC12CC(NC(=O)[C@@H]3[C@H](NC(=O)c4cc(C5=NOC6CC(CO)CC56)cc(F)c4OCC4CC4)[C@@H]4CC[C@H]3/C4=C/C3CC3)(C1)C2` (stereo partly drawn) [compound 764], the negative-log EC50 (pEC50) was 8.64.
Then `COc1ccc(-c2cccnc2F)cc1C(=O)N[C@H]1[C@@H](C(=O)Nc2ccc(F)c(C(F)(F)F)c2)[C@H]2CC[C@@H]1/C2=C/c1ccccc1` [compound 95], with 6.38; and `COc1ccc(C2=NOC(CC(=O)O)C2)cc1C(=O)N[C@@H]1C2CCC(/C2=C/C2CC2)[C@@H]1C(=O)Nc1ccc(F)c(C(F)(F)F)c1` (stereo partly drawn) [compound 392], with 7.30; and `COc1ccc(-c2cnc3n2CC(O)CC3)cc1C(=O)N[C@H]1[C@@H](C(=O)Nc2ccc(F)c(C(F)(F)F)c2)[C@H]2CC[C@@H]1/C2=C\C1CC1` (stereo partly drawn) [compound 755], with 8.30.
The figure for `COc1ccc(C2=NOC(C(=O)O)C2)cc1C(=O)N[C@@H]1C2CCC(/C2=C/C2CC2)[C@@H]1C(=O)Nc1ccc(F)c(C(F)(F)F)c1` (single isomer, unassigned) [Example 385] is 8.10; for `COc1ccc(C2=NOC(C3(O)CCCC3)C2)cc1C(=O)N[C@H]1[C@@H](C(=O)Nc2ccc(F)c(C(F)(F)F)c2)[C@H]2CC[C@@H]1/C2=C\C1CC1` (single isomer, unassigned) [compound 488] it is 8.09; for `COc1ccc(C2CCCN2)cc1C(=O)N[C@@H]1C2CCC(C2=CC2CC2)[C@@H]1C(=O)Nc1ccc(F)c(C(F)(F)F)c1` (stereo partly drawn) [compound 703] it is 5.92.
Then `COc1ccc(C2CC(O)C(=O)N2C)cc1C(=O)N[C@@H]1C2CCC(/C2=C/C2CC2)[C@@H]1C(=O)Nc1ccc(F)c(C(F)(F)F)c1` (single isomer, unassigned) [Example 414], with 6.44.
With `COc1c(F)cc(C2=NOC3CC(CO)CC23)cc1C(=O)N[C@H]1[C@@H](C(=O)NCC(C)(C)C)[C@H]2CC[C@@H]1/C2=C\C1CC1` (stereo partly drawn) [compound 765], the pEC50 is 8.60.
The figure for `COc1ccc(-c2cc(NC(=O)CC(=O)O)ccc2F)cc1C(=O)N[C@@H]1C2CCC(/C2=C/c2cnoc2)[C@@H]1C(=O)Nc1ccc(F)c(C(F)(F)F)c1` (stereo partly drawn) [compound 175] is 7.77; for `COc1ccc(C2=NOC3COCC23)cc1C(=O)N[C@H]1[C@@H](C(=O)Nc2ccc(F)c(C(F)(F)F)c2)[C@H]2CC[C@@H]1/C2=C\c1cscn1` (stereo partly drawn) [compound 737] it is 8.49; for `C=C/C=C1\C2CCC1[C@H](C(=O)Nc1ccc(F)c(C(F)(F)F)c1)[C@@H]2NC(=O)c1cc(-c2cc(C(=O)NS(C)(=O)=O)ccc2F)ccc1OC` (stereo partly drawn) [compound 162] it is 7.40.
For `COc1ccc(C2CCN(CC(C)(C)O)C2)cc1C(=O)N[C@@H]1C2CCC(C2=CC2CC2)[C@@H]1C(=O)Nc1ccc(F)c(C(F)(F)F)c1` (stereo partly drawn) [compound 568], the pEC50 was 7.23.
The figure for `COc1ccc(C2=NOC3CC(CO)CC23)cc1C(=O)N[C@H]1[C@@H](C(=O)Nc2ccc(F)c(C(F)(F)F)c2)[C@H]2CC[C@@H]1/C2=C\c1csc(C)n1` (stereo partly drawn) [compound 805] is 8.39; for `COc1ccc(N2CCCCS2(=O)=O)cc1C(=O)N[C@@H]1C2CCC(/C2=C/C2CC2)[C@@H]1C(=O)Nc1ccc(F)c(C(F)(F)F)c1` (stereo partly drawn) [compound 373] it is 8.05; for `COc1cc(F)c(F)cc1C(=O)N[C@@H]1C2CCC(/C2=C/c2ccccc2Cl)[C@@H]1C(=O)Nc1ccc(F)c(C(F)(F)F)c1` (stereo partly drawn) [compound 14] it is 6.66.
Then `COc1ccc(/C=C2\C3CCC2[C@H](C(=O)Nc2ccc(F)c(C(F)(F)F)c2)[C@@H]3NC(=O)c2cc(F)c(F)cc2OC)cc1` (stereo partly drawn) [compound 20], with 6.03; and `COc1ccc(C2=NOC3COCC23)cc1C(=O)N[C@H]1[C@@H](C(=O)N[C@H](C)C2(C)CCC2)[C@H]2CC[C@@H]1/C2=C\C1CC1` (stereo partly drawn) [compound 769], with 8.48.
The figure for `COc1ccc(-c2cc(C(=O)O)ccc2F)cc1C(=O)N[C@@H]1C2CCC(/C2=C/C2CC2)[C@@H]1C(=O)NCCc1cccc(C(F)(F)F)c1` (stereo partly drawn) [compound 302] is 6.05.
Consider `COc1ccc(-c2cc(C(=O)O)ccc2F)cc1C(=O)N[C@@H]1C2CCC(/C2=C/c2cncnc2)[C@@H]1C(=O)Nc1ccc(F)c(C(F)(F)F)c1` (stereo partly drawn) [compound 129], for which the negative-log EC50 (pEC50) was 7.22.
Then `COc1ccc(-c2cc(C(NC(C)=O)C(=O)O)ccc2F)cc1C(=O)N[C@@H]1C2CCC(/C2=C/C2CC2)[C@@H]1C(=O)Nc1ccc(F)c(C(F)(F)F)c1` (stereo partly drawn) [Example 182], with 8.30.
